Experimental data from US20260070945A1, “MACROCYCLIC IMMUNOMODULATORS” (Bristol-Myers Squibb Company, priority 2022, published 2026).
Where a SMILES comes first, the peptide text is derived from it. Bridges are numbered along the chain shown (N, C = ends). [ ]: non-standard residue; d: D form. The star is where a group is joined. Phe(4-COOH) = N[C@@H](Cc1ccc(C(=O)O)cc1)C(=O)O; Bip = N[C@@H](Cc1ccc(-c2ccccc2)cc1)C(=O)O; 4Pal = N[C@@H](Cc1ccncc1)C(=O)O; Cha = N[C@@H](CC1CCCCC1)C(=O)O; Cit = NC(=O)NCCC[C@H](N)C(=O)O; Carboxymethyl = O=C(O)C*; NMeA = CN[C@@H](C)C(=O)O; Orn = NCCC[C@H](N)C(=O)O; Aun = NCCCCCCCCCCC(=O)O; Dab = NCC[C@H](N)C(=O)O; Dap = NC[C@H](N)C(=O)O

target: T1, PD-1/PD-L1 interaction (PE-labeled human PD-L1-Ig binding to Jurkat cell line over-expressing human PD-1) (Homo sapiens, UniProt Q15116); experiment: Jurkat-PD-1 Cell Binding High-Content Screening Assay (CBA); conditions: Jurkat-hPD-1 cells, PE-labeled PD-L1-Ig 20 nM final; read-out: Jurkat HPD1 PDL1 IC50
T1 construct: expressed in transfected cells; host or cells: Jurkat
Procedure, shortened: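 Compound is added first to the PD-1-expressing Jurkat cells and held 2 h at 37 °C in serum-containing DMEM. The fluorescent PD-L1 fusion follows at 20 nM final for 1 h. Fixed, Hoechst-stained cells are then imaged for bound label.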

T1 sequence (Q15116 25-288): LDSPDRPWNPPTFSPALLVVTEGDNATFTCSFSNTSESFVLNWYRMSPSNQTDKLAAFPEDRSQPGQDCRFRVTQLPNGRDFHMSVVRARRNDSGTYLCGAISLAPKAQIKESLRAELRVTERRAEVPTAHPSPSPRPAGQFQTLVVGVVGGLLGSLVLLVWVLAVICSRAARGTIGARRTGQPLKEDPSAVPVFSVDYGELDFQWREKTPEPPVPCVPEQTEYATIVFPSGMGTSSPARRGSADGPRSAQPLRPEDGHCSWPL

| SMILES | IC50 |
| --- | --- |
| CC(C)C[C@@H]1NC(=O)[C@H](Cc2c[nH]c3ccccc23)NC(=O)[C@H](CC(=O)O)NC(=O)[C@H](Cc2ccc(OCC(=O)O)cc2)NC(=O)[C@H](Cc2ccccc2)NC(=O)CSC[C@@H](C(=O)N[C@@H](CCCN)C(=O)NCCCCCCCCCCC(=O)O)NC(=O)[C@@H](CCC(N)=O)NC(=O)[C@H](C(C)C)NC(=O)[C@H](CC(C)C)NC(=O)[C@H](CC(N)=O)NC(=O)[C@@H](CC(C)C)NC(=O)[C@H](C)N(C)C(=O)[C@H](C(C)C)NC(=O)[C@H](Cc2ccc(-c3ccccc3)cc2)NC1=O [Example 1347] ({CH2CO}-FY(Carboxymethyl)DWL[Bip]V[NMeA][dL]NLV[dQ]C[Orn][Aun]-OH; thioether N-14) | 301 nM |
| CC(C)C[C@@H]1NC(=O)[C@H](Cc2c[nH]c3ccccc23)NC(=O)[C@H](CC(=O)O)NC(=O)[C@H](Cc2ccc(C(=O)O)cc2)NC(=O)[C@H](Cc2ccc(OCC(=O)O)cc2)NC(=O)CSC[C@@H](C(=O)N[C@@H](CCCCN)C(=O)NCCCCCCCCCCC(=O)O)NC(=O)[C@H](CN)NC(=O)[C@H](C(C)C)NC(=O)[C@H](CC2CCCCC2)NC(=O)[C@H](CCN)NC(=O)[C@@H](CC(C)C)NC(=O)[C@H](C)N(C)C(=O)[C@H](C(C)C)NC(=O)[C@H](Cc2ccc(-c3ccccc3)cc2)NC1=O [Example 1348] ({CH2CO}-Y(Carboxymethyl)[Phe(4-COOH)]DWL[Bip]V[NMeA][dL][Dab][Cha]V[Dap]CK[Aun]-OH; thioether N-14) | 39.4 nM |
| CC(C)C[C@@H]1NC(=O)[C@H](Cc2c[nH]c3ccccc23)NC(=O)[C@H](CC(=O)O)NC(=O)[C@H](Cc2ccncc2)NC(=O)[C@H](Cc2ccc(OCC(=O)O)cc2)NC(=O)CSC[C@@H](C(=O)N[C@@H](CCCCN)C(=O)NCCCCCCCCCCC(=O)O)NC(=O)[C@H](CN)NC(=O)[C@H](C(C)C)NC(=O)[C@H](CC2CCCCC2)NC(=O)[C@H](CCN)NC(=O)[C@@H](CC(C)C)NC(=O)[C@H](C)N(C)C(=O)[C@H](C(C)C)NC(=O)[C@H](Cc2ccc(-c3ccccc3)cc2)NC1=O [Example 1349] ({CH2CO}-Y(Carboxymethyl)[4Pal]DWL[Bip]V[NMeA][dL][Dab][Cha]V[Dap]CK[Aun]-OH; thioether N-14) | 15.8 nM |
| CC(C)C[C@@H]1NC(=O)[C@H](Cc2c[nH]c3ccccc23)NC(=O)[C@H](CC(=O)O)NC(=O)[C@H](Cc2ccc(OCC(=O)O)cc2)NC(=O)[C@H](Cc2ccccc2)NC(=O)CSC[C@@H](C(=O)N[C@@H](CCCCN)C(=O)NCCCCCCCCCCC(=O)O)NC(=O)[C@H](CN)NC(=O)[C@H](C(C)C)NC(=O)[C@H](CC(C)C)NC(=O)[C@H](CC(N)=O)NC(=O)[C@@H](CC(C)C)NC(=O)[C@H](C)N(C)C(=O)[C@H](C(C)C)NC(=O)[C@H](Cc2ccc(-c3ccccc3)cc2)NC1=O [Example 1350] ({CH2CO}-FY(Carboxymethyl)DWL[Bip]V[NMeA][dL]NLV[Dap]CK[Aun]-OH; thioether N-14) | 119 nM |
| CC(C)C[C@H]1NC(=O)[C@H](C)N(C)C(=O)[C@H](CCCNC(N)=O)NC(=O)[C@H](Cc2ccc(-c3ccccc3)cc2)NC(=O)[C@H](C(C)C)NC(=O)[C@H](Cc2c[nH]c3ccccc23)NC(=O)[C@H](CC(=O)O)NC(=O)[C@H](Cc2ccc(OCC(=O)O)cc2)NC(=O)[C@H](CCCNC(=N)N)NC(=O)CSC[C@@H](C(=O)N[C@@H](CCN)C(=O)NCCCCCCCCCCC(=O)O)NC(=O)[C@H]([C@@H](C)O)NC(=O)[C@H](C(C)C)NC(=O)[C@H](CC2CCCCC2)NC(=O)[C@H](CCN)NC1=O [Example 1353] ({CH2CO}-RY(Carboxymethyl)DWV[Bip][Cit][NMeA][dL][Dab][Cha]VTC[Dab][Aun]-OH; thioether N-14) | 16.3 nM |
